In series [1] the test system is mycobacterial proteasome in M. bovis strain BCG. It is filed as cell-based. The following applies: for protection of mycobacterial proteasome from HT1171: then HT1171 25 μM 1 hour.
The target in series [2] is T1, Mtb20SOG (Mycobacterium tuberculosis, UniProt P9WHT9).
Series [3] addresses T1, Mtb20SOG. The source holds these as a separate data set.
The target of series [4] is Mtb20SOG.
Series [5] concerns the target human c-20S β5c (Homo sapiens, UniProt P20618+P28074). In words: Inhibition of human constitutive 20S β5c. The class given is biochemical. The settings on record: read-out: Ki μM β5c; Table 2.
The conditions of series [6]: over 22 hours.
The target of series [7] is human i-20S β5i (Homo sapiens, UniProt P20618+P28062). The series is described as follows: Inhibition of human immunoproteasome β5i. It is filed as biochemical. The following applies: Table 2.

Where two headings read alike, the source gives them in different places.

T1 sequence (P9WHT9 58-291): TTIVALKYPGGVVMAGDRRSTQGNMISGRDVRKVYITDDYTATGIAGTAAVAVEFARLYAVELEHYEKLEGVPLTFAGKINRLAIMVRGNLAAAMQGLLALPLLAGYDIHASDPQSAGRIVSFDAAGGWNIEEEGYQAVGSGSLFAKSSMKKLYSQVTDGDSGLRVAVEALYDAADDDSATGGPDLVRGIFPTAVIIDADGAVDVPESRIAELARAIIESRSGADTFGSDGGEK

In the case of `Cc1sc(-c2nsc(=O)o2)cc1[N+](=O)[O-]` [HT1171, reference compound], the “inhibition of proteasomes in intact BCG” value in series [1] (HT1171 25 μM, 1 hour, absence of DPLG-2) was “inhibited the proteasomes irreversibly”.

`CCN(CC)C(=O)C[C@H](NC(=O)CCc1ccccc1)C(=O)N[C@@H](Cc1ccc(F)cc1)C(=O)NCc1cccc2ccccc12` [DPLG-2]: the apparent kon in series [2] is 5.7 ± 0.2 × 10^4 M^−1s^−1. Besides, the “dissociation rate constant koff” value in series [2] was found to be 0.0015 ± 0.0001 s⁻¹. Also, the “mode of inhibition of Mtb20SOG” value in series [2] is recorded as “time-dependent manner”. Besides, the Ki in series [2] (read-out: Ki^app calculated from koff/kon) is 0.0263 µM; in series [2] (read-out: apparent Ki^app against Mtb20SOG), 0.0242 ± 0.0009 µM; in series [3] (read-out: Ki μM Mtb20SOG), 0.015 µM; in series [5] it was 70 µM; in series [7] (read-out: Ki μM β5i) it was 54.7 µM. Besides, the “protection of mycobacterial proteasome from HT1171” value in series [1] (DPLG-2 1 μM 4 hours) is “HT1171 inhibited the proteasomes irreversibly”; in series [1] (DPLG-2 10 μM 4 hours), “able to shield the mycobacterial proteasome active sites from HT1171”; in series [1] (DPLG-2 50 μM 4 hours), “able to shield the mycobacterial proteasome active sites from HT1171”. Besides, the “increase in potency against Mtb20SOG compared to ML9” value in series [3] worked out at 4 fold. Further, the “Ki(β5c)/Ki(Mtb)” value in series [4] is 4670. Besides, in series [4], the “species selectivity for Mtb20SOG over human constitutive proteasome β5 subunit” value was found to be 4670 fold. Moreover, the “stability in human plasma” value in series [6] was “stable”. For the same compound, in series [7], the “Ki(β5i)/Ki(Mtb)” value was found to be 3650.

The record behind these values is publication PMC3773049 (Journal of the American Chemical Society, 2013).
